This test concerns the target T1, CLIP-tag enzyme (CLIPtag-mGluR2 fusion protein) (Homo sapiens, UniProt P16455, A121V/A127T/A154D/C150Q/C62A/G131N/G132T/G153S/K125A/K32I/L33F/M134L/M60I/N157P/Q115S/Q116H/R128A/R135D/S151G/S152D/S159L/Y114E).
T1 construct: The co-expressed SNAPtag-mGluR2 is a separate chain that carries the FRET partner dye
T1 sequence (P16455 1-207 K32I/L33F/M60I/C62A/Y114E/Q115S/Q116H/A121V/K125A/A127T/R128A/G131N/G132T/M134L/R135D/C150Q/S151G/S152D/G153S/A154D/N157P/S159L): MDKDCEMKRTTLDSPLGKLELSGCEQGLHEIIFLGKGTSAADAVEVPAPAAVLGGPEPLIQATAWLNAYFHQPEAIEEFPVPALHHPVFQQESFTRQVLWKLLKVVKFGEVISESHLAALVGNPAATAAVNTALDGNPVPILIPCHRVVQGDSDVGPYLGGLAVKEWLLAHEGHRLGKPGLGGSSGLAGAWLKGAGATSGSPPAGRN
Nature of the test: Cell model with CLIPtag-mGluR2 and SNAPtag-mGluR2 cotransfection, TR-FRET at 665 nm. As to conditions: cells incubated with 300 nM of BG-methylbenzamide-Tb(KR); TR-FRET; read-out: half saturation concentration of CLIPtag. The class given is cell-based. The procedure:
The cell model used in this example is different from that used in the preceding examples:
The cells are either cotransfected with a plasmid coding for the fusion protein CLIPtag-mGluR2 and another plasmid coding for the fusion protein SNAPtag-mGluR2, or transfected with a single plasmid coding for the fusion protein SNAPtag-mGluR2.
Each cell population is incubated in the presence of 300 nM of BG-methylbenzamide-DY647 and increasing concentrations of reference substrates (BC-Tb(KR)) or of a substrate according to the invention (BC-methylbenzamide-Tb(KR)). The fluorescence is measured at 665 nm in TR-FRET mode on a Rubystar machine and the signal measured is representative of a transfer of energy following the dimerization of two monomers of mGluR2 labeled respectively by DY647 and Tb(KR).
This example is carried out in the same way as example 7 but the cells are incubated in the presence of 300 nM of BG-methylbenzamide-Tb(KR) and increasing concentrations of reference substrate (BC-DY647) or of substrate according to the invention (BC-methylbenzamide-DY647), the formulae of which are below: […]
On the technique in general: TR-FRET usually uses a lanthanide donor and a delayed reading to cut background.

In the case of `CCN1/C(=C/C=C/C=C/C2=[N+](CC)c3ccc(S(=O)(=O)[O-])cc3C2(C)C)C(C)(CCCC(=O)NCc2ccc(C(=O)NCc3ccc(COc4nccc(N)n4)cc3)cc2)c2cc(S(=O)(=O)O)ccc21` (stereo not shown) [BC-methylbenzamide-DY647, DY647-methylbenzamide-BC], the EC50 was found to be 240 nM.

Values taken from patent US9024022B2, “Substrates of O6-alkylguanine-DNA alkyltransferase and mutants thereof” (Cis Bio International, priority 2008, dated 2015).
